Assay results: patent US20080227728A1, “Therapeutic Agent for the Treatment of a Condition Associated with Peripheral Vascular Disease” (LABORATORIOS BELMAC, S.A., priority 2005, published 2008)

Tested on: individuals showing problems related to venous insufficiency
Assay: Administration of oleuropein to patients suffering from venous insufficiency (general statements)
Conditions: compared with other drugs known for peripheral vascular disease symptoms

## C/C=C1/[C@H](O[C@@H]2O[C@H](CO)[C@@H](O)[C@H](O)[C@H]2O)OC=C(C(=O)OC)[C@H]1CC(=O)OCCc1ccc(O)c(O)c1 [oleuropein]
  side effects: do not show significant side effects
